# Legend:
# Experiment in all cases: KINOMEscan
# Assay type in all cases: binding
# Details in all cases: read-out: % Ctrl
# [1] = biological target: T1, ACVR2B (Homo sapiens, UniProt Q13705)
# T1 construct: purchased DiscoveRx KINOMEscan
# Method in brief: (§1)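 Competition binding panel of 442 non-mutant kinases: test compound at 5 and 10 μM competed with an active-site-directed ligand for 1 h with shaking. Bound kinase was eluted with 0.5 μM ligand and quantified by qPCR; %Ctrl = (compound − positive control)/(DMSO − positive control) × 100, lower meaning tighter binding.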
# [2] = biological target: T2, CDKL1 (Homo sapiens, UniProt Q00532)
# T2 construct: purchased DiscoveRx KINOMEscan
# Method in brief: as §1
# [3] = biological target: T3, CSNK2A2 (Homo sapiens, UniProt P19784)
# T3 construct: purchased DiscoveRx KINOMEscan
# Method in brief: as §1
# [4] = biological target: T4, EPHB2 (Homo sapiens, UniProt P29323)
# T4 construct: purchased DiscoveRx KINOMEscan
# Method in brief: as §1
# [5] = biological target: T5, ERK1 (Homo sapiens, UniProt P27361)
# T5 construct: purchased DiscoveRx KINOMEscan
# Method in brief: as §1
# [6] = biological target: T6, FRK (Homo sapiens, UniProt P42685)
# T6 construct: purchased DiscoveRx KINOMEscan
# Method in brief: as §1
# [7] = biological target: T7, GRK4 (Homo sapiens, UniProt P32298)
# T7 construct: purchased DiscoveRx KINOMEscan
# Method in brief: as §1
# [8] = biological target: T8, HUNK (Homo sapiens, UniProt P57058)
# T8 construct: purchased DiscoveRx KINOMEscan
# Method in brief: as §1
# [9] = biological target: T9, ICK (Homo sapiens, UniProt Q9UPZ9)
# T9 construct: purchased DiscoveRx KINOMEscan
# Method in brief: as §1
# [10] = biological target: T10, LATS1 (Homo sapiens, UniProt O95835)
# T10 construct: purchased DiscoveRx KINOMEscan
# Method in brief: as §1
# [11] = biological target: T11, MAP4K2 (Homo sapiens, UniProt Q12851)
# T11 construct: purchased DiscoveRx KINOMEscan
# Method in brief: as §1
# [12] = biological target: T12, MAP4K4 (Homo sapiens, UniProt O95819)
# T12 construct: purchased DiscoveRx KINOMEscan
# Method in brief: as §1
# [13] = biological target: T13, MARK2 (Homo sapiens, UniProt Q7KZI7)
# T13 construct: purchased DiscoveRx KINOMEscan
# Method in brief: as §1
# [14] = biological target: T14, MAST1 (Homo sapiens, UniProt Q9Y2H9)
# T14 construct: purchased DiscoveRx KINOMEscan
# Method in brief: as §1
# [15] = biological target: T15, MKK7 (Homo sapiens, UniProt O14733)
# T15 construct: purchased DiscoveRx KINOMEscan
# Method in brief: as §1
# [16] = biological target: T16, MLCK (Homo sapiens, UniProt Q32MK0)
# T16 construct: purchased DiscoveRx KINOMEscan
# Method in brief: as §1
# [17] = biological target: T17, MST4 (Homo sapiens, UniProt Q9P289)
# T17 construct: purchased DiscoveRx KINOMEscan
# Method in brief: as §1
# [18] = biological target: T18, PAK3 (Homo sapiens, UniProt O75914)
# T18 construct: purchased DiscoveRx KINOMEscan
# Method in brief: as §1
# [19] = biological target: T19, PDPK1 (Homo sapiens, UniProt O15530)
# T19 construct: purchased DiscoveRx KINOMEscan
# Method in brief: as §1
# [20] = biological target: T20, PIP5K1C (Homo sapiens, UniProt O60331)
# T20 construct: purchased DiscoveRx KINOMEscan
# Method in brief: as §1
# [21] = biological target: T21, PLK3 (Homo sapiens, UniProt Q9H4B4)
# T21 construct: purchased DiscoveRx KINOMEscan
# Method in brief: as §1
# [22] = biological target: T22, PRKD1 (Homo sapiens, UniProt Q15139)
# T22 construct: purchased DiscoveRx KINOMEscan
# Method in brief: as §1
# [23] = biological target: T23, PRP4 (Homo sapiens, UniProt Q13523)
# T23 construct: purchased DiscoveRx KINOMEscan
# Method in brief: as §1
# [24] = biological target: T24, RAF1 (Homo sapiens, UniProt P04049)
# T24 construct: purchased DiscoveRx KINOMEscan
# Method in brief: as §1
# [25] = biological target: T25, SRPK1 (Homo sapiens, UniProt Q96SB4)
# T25 construct: purchased DiscoveRx KINOMEscan
# Method in brief: as §1
# [26] = biological target: T26, TBK1 (Homo sapiens, UniProt Q9UHD2)
# T26 construct: purchased DiscoveRx KINOMEscan
# Method in brief: as §1
# [27] = biological target: T27, TEC (Homo sapiens, UniProt P42680)
# T27 construct: purchased DiscoveRx KINOMEscan
# Method in brief: as §1
# [28] = biological target: T28, TIE1 (Homo sapiens, UniProt P35590)
# T28 construct: purchased DiscoveRx KINOMEscan
# Method in brief: as §1
# [29] = biological target: T29, TLK2 (Homo sapiens, UniProt Q86UE8)
# T29 construct: purchased DiscoveRx KINOMEscan
# Method in brief: as §1
# [30] = biological target: T30, VRK2 (Homo sapiens, UniProt Q86Y07)
# T30 construct: purchased DiscoveRx KINOMEscan
# Method in brief: as §1
# [31] = biological target: T31, WEE2 (Homo sapiens, UniProt P0C1S8)
# T31 construct: purchased DiscoveRx KINOMEscan
# Method in brief: as §1
# T14 sequence (Q9Y2H9 whole entry): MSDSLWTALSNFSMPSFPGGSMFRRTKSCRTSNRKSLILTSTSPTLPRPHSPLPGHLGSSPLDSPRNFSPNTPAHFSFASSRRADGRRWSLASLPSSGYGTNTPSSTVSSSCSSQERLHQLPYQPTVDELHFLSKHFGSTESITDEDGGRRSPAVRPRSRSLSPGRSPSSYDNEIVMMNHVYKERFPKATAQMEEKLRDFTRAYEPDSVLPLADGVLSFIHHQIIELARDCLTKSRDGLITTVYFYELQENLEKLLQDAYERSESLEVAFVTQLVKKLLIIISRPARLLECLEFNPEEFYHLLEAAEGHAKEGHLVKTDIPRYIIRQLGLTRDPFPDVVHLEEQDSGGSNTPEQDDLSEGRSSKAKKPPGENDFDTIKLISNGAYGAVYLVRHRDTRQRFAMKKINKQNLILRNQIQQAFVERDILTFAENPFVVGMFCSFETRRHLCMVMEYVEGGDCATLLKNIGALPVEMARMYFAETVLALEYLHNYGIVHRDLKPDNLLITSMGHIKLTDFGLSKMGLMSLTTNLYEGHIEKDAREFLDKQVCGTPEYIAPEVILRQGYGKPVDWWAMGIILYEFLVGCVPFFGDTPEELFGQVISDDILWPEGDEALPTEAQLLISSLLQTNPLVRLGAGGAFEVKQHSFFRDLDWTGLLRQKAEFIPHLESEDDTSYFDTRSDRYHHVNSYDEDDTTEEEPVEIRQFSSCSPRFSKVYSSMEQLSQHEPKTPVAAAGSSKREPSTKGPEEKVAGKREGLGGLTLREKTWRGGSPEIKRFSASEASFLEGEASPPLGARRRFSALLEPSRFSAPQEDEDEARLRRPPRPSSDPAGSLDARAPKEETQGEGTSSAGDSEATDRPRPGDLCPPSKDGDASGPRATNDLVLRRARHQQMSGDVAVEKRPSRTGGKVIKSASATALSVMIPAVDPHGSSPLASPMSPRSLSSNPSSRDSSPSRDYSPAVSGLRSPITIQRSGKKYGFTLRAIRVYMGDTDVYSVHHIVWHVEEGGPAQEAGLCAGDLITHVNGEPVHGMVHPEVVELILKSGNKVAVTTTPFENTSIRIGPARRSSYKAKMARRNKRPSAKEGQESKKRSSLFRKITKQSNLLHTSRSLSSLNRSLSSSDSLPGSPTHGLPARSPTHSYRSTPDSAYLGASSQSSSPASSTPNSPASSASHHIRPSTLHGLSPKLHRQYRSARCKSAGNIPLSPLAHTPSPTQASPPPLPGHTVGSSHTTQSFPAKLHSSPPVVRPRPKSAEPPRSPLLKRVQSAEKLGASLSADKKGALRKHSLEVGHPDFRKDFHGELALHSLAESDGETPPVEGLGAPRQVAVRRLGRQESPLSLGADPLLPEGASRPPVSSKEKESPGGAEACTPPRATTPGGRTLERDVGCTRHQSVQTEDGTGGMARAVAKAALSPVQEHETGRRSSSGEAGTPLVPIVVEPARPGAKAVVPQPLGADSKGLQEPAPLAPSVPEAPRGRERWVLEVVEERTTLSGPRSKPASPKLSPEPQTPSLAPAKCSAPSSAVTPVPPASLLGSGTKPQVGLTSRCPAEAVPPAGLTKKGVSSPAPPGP
# T27 sequence (P42680 whole entry): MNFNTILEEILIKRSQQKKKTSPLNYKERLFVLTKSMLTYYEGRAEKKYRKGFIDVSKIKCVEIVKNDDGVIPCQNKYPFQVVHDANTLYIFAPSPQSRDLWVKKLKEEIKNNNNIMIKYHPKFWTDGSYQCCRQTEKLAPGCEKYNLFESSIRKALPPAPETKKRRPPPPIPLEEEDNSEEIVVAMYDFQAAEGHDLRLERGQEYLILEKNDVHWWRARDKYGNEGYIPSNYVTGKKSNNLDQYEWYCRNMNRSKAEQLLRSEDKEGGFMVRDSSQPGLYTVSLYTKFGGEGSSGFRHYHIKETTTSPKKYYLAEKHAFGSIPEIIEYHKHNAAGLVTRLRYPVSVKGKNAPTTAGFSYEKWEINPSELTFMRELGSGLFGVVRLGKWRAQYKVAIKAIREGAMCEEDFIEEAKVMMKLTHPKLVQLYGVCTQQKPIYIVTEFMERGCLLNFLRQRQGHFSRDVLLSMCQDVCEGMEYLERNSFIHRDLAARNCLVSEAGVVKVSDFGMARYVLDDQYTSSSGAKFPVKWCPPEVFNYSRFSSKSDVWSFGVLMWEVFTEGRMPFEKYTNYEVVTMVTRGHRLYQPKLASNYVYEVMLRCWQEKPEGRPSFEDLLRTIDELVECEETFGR
# T30 sequence (Q86Y07 whole entry): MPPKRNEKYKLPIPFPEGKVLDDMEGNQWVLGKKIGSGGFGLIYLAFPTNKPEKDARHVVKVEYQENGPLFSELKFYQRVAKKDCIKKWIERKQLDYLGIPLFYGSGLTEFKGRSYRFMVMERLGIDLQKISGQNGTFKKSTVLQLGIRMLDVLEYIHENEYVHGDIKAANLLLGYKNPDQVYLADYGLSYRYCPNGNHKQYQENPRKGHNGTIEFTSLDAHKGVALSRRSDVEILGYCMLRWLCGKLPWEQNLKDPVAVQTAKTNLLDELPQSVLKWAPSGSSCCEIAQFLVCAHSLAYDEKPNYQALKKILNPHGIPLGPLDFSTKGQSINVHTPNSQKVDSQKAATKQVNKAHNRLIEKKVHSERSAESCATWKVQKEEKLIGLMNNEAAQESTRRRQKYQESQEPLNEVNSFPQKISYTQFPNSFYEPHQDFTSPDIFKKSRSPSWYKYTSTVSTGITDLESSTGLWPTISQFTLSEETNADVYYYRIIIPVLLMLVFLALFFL
# T1 sequence (Q13705 19-512): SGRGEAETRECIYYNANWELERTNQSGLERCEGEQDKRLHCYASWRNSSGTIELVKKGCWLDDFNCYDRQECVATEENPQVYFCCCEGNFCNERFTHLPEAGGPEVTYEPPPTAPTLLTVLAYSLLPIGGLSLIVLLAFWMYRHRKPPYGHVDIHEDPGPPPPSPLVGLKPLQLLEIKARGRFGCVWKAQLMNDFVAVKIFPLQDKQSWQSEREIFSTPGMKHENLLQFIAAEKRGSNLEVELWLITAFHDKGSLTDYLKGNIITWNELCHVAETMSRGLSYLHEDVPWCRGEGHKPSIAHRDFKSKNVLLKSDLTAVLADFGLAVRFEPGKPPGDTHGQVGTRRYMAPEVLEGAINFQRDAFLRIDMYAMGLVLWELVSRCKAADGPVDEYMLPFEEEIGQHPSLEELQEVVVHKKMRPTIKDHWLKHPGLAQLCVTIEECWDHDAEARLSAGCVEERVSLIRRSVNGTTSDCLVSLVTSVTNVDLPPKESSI
# T8 sequence (P57058 whole entry): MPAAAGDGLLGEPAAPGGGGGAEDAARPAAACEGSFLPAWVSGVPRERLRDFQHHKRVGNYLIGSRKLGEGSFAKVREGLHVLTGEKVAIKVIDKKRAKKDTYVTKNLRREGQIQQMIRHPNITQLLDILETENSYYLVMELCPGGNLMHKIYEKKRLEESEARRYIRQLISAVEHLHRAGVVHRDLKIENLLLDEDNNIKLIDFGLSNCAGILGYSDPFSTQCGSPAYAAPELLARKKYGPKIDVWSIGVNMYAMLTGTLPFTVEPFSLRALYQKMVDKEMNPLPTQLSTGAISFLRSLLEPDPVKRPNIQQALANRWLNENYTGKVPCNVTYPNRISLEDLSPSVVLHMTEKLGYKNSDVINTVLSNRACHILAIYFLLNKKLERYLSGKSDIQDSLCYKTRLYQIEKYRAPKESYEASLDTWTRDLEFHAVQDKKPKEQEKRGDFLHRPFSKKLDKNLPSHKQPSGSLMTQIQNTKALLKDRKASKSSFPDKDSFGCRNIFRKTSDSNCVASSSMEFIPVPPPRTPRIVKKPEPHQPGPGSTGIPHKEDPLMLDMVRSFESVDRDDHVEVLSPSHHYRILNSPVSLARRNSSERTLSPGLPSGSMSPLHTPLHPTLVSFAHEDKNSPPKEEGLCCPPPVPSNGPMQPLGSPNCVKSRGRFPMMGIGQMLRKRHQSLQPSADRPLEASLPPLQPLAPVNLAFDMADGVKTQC
# T20 sequence (O60331 whole entry): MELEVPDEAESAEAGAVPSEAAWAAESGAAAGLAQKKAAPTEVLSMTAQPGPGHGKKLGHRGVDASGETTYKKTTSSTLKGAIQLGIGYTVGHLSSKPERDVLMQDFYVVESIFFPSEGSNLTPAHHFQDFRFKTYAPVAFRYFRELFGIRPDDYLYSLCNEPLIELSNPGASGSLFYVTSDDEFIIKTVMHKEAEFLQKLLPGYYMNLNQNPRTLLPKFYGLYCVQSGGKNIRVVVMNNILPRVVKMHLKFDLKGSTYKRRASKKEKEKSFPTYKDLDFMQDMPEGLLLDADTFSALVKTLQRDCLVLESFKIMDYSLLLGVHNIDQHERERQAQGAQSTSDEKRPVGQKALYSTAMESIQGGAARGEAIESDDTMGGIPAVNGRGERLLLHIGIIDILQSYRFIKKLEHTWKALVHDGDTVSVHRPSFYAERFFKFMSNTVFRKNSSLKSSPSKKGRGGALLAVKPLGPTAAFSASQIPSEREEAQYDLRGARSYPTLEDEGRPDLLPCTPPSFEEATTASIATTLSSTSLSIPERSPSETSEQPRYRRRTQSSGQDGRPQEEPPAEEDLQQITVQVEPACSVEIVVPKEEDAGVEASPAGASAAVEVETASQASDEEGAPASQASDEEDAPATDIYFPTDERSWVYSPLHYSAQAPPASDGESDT
# T3 sequence (P19784 whole entry): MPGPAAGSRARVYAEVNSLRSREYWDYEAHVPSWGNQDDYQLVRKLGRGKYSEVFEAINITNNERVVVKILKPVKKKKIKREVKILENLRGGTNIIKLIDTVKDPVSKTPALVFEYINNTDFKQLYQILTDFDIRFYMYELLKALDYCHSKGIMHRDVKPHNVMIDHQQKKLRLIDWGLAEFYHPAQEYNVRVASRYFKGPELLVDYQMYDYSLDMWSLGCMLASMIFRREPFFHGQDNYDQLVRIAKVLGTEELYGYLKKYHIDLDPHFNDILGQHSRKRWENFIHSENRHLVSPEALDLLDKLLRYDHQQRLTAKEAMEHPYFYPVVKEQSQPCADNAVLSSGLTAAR
smiles,measurement,setting,value
"Cc1ccc(C2=Nc3cccnc3S(=O)(=O)c3ccccc32)cc1 [TBPT, 6-(p-tolyl)benzo[f] pyrido[2,3-b][1,4] thiazepine 11,11-dioxide]",remaining binding at 5 µM,[1]; 5 μM,87%
same,remaining binding at 10 µM,[1]; 10 μM,82%
same,remaining binding at 5 µM,[2]; 5 μM,94%
same,remaining binding at 10 µM,[2]; 10 μM,88%
same,remaining binding at 5 µM,[3]; 5 μM,100%
same,remaining binding at 10 µM,[3]; 10 μM,100%
same,remaining binding at 5 µM,[4]; 5 μM,91%
same,remaining binding at 10 µM,[4]; 10 μM,100%
same,remaining binding at 5 µM,[5]; 5 μM,100%
same,remaining binding at 10 µM,[5]; 10 μM,100%
same,remaining binding at 5 µM,[6]; 5 μM,100%
same,remaining binding at 10 µM,[6]; 10 μM,99%
same,remaining binding at 5 µM,[7]; 5 μM,100%
same,remaining binding at 10 µM,[7]; 10 μM,95%
same,remaining binding at 5 µM,[8]; 5 μM,89%
same,remaining binding at 10 µM,[8]; 10 μM,84%
same,remaining binding at 5 µM,[9]; 5 μM,100%
same,remaining binding at 10 µM,[9]; 10 μM,100%
same,remaining binding at 5 µM,[10]; 5 μM,100%
same,remaining binding at 10 µM,[10]; 10 μM,100%
same,remaining binding at 5 µM,[11]; 5 μM,92%
same,remaining binding at 10 µM,[11]; 10 μM,100%
same,remaining binding at 5 µM,[12]; 5 μM,94%
same,remaining binding at 10 µM,[12]; 10 μM,63%
same,remaining binding at 5 µM,[13]; 5 μM,86%
same,remaining binding at 10 µM,[13]; 10 μM,84%
same,remaining binding at 5 µM,[14]; 5 μM,45%
same,remaining binding at 10 µM,[14]; 10 μM,87%
same,remaining binding at 5 µM,[15]; 5 μM,100%
same,remaining binding at 10 µM,[15]; 10 μM,100%
same,remaining binding at 5 µM,[16]; 5 μM,92%
same,remaining binding at 10 µM,[16]; 10 μM,95%
same,remaining binding at 5 µM,[17]; 5 μM,63%
same,remaining binding at 10 µM,[17]; 10 μM,99%
same,remaining binding at 5 µM,[18]; 5 μM,100%
same,remaining binding at 10 µM,[18]; 10 μM,100%
same,remaining binding at 5 µM,[19]; 5 μM,100%
same,remaining binding at 10 µM,[19]; 10 μM,100%
same,remaining binding at 5 µM,[20]; 5 μM,100%
same,remaining binding at 10 µM,[20]; 10 μM,94%
same,remaining binding at 5 µM,[21]; 5 μM,95%
same,remaining binding at 10 µM,[21]; 10 μM,75%
same,remaining binding at 5 µM,[22]; 5 μM,100%
same,remaining binding at 10 µM,[22]; 10 μM,78%
same,remaining binding at 5 µM,[23]; 5 μM,99%
same,remaining binding at 10 µM,[23]; 10 μM,100%
same,remaining binding at 5 µM,[24]; 5 μM,100%
same,remaining binding at 10 µM,[24]; 10 μM,91%
same,remaining binding at 5 µM,[25]; 5 μM,88%
same,remaining binding at 10 µM,[25]; 10 μM,67%
same,remaining binding at 5 µM,[26]; 5 μM,100%
same,remaining binding at 10 µM,[26]; 10 μM,100%
same,remaining binding at 5 µM,[27]; 5 μM,90%
same,remaining binding at 10 µM,[27]; 10 μM,99%
same,remaining binding at 5 µM,[28]; 5 μM,100%
same,remaining binding at 10 µM,[28]; 10 μM,98%
same,remaining binding at 5 µM,[29]; 5 μM,100%
same,remaining binding at 10 µM,[29]; 10 μM,100%
same,remaining binding at 5 µM,[30]; 5 μM,100%
same,remaining binding at 10 µM,[30]; 10 μM,69%
same,remaining binding at 5 µM,[31]; 5 μM,100%
same,remaining binding at 10 µM,[31]; 10 μM,100%

# — PMC4823954, “From fighting depression to conquering tumors: a novel tricyclic thiazepine compound as a tubulin polymerization inhibitor” (Cell Death & Disease, 2016)
